Experimental data from patent publication US20180360091A1, “NUTRITIONAL COMPOSITIONS AND INFANT FORMULAS TO PROMOTE MYELINATION IN THE BRAIN” (NESTEC S.A., priority 2015, published 2018).

System: children up to 5 years of age
Assay: Cross-sectional correlation (GLM) of formula nutrient composition with brain myelination
Format: in vivo, human
Details: for Nutritional driver for myelination in the final general linear model: 5 most used formulas, voxel-wise correlations, p<0.05 corrected, inter-variable correlation threshold 0.9
Description: MRI brain scans of infants and children between 0 and 5 years were acquired using a white matter imaging technique. This technique provides a quantitative measure, the Myelin Water Fraction (MWF), which is a surrogate marker of myelin content. When mapped as a function of time across early childhood, myelination trajectories can be generated.
Infant formula composition: six infant formulas fed to infants participating in study were analyzed for their composition/level of myelin-relevant nutrients.
Each infant was scanned using the mcDESPOT (multicomponent Driven Equilibrium Single Pulse Observation of T1 and T2) white matter imaging technique Deoni et al. (Magn. Reson. Med. 2008, 60:1372-1387), which provides a quantitative measure of the myelin water fraction (MWF) at each imaging point throughout the brain. All infants were scanned during natural (i.e. non-sedated) sleep using acoustically-muffled mcDESPOT imaging protocols. Total imaging times ranged from 19 minutes for the youngest toddlers to 24 minutes for the older 4 year-old children.
Following image alignment, non-brain signal removal, and correction for main and transmit magnetic field (B0 and B1) inhomogeneities, a three-pool signal model (comprising the myelin-associated water; intra-extra axonal water; and a non-exchanging free-water pool) was fit to the mcDESPOT data to derive voxel-wise MWF maps.
Each child's map was then non-linearly aligned to a study specific template. White matter masks, corresponding to 5 bilateral regions (frontal, temporal, occipital, parietal, and cerebellar WM) as well as the body, genu, and splenium of the corpus callosum were created from common databases, registered to the common template, and superimposed onto each child's MWF map. Mean values for each region were then determined for each child and used for subsequent developmental analysis and trajectory modeling.
From the cohort described above, children up to 5 years of age that were fed different infant formulas during infancy were included in a large correlation analysis to examine the relationship between formula nutrient composition and brain myelination. The 5 most frequently used formulas in that cohort were analyzed for their nutritional composition. A single general linear model (GLM) was constructed that modeled all quantified nutrients, sphingomyelin, and child age. Voxel-wise correlations were calculated with significance defined as p<0.05 corrected for type 1 error using a cluster based correction approach.
To reduce the number of variables in the model, we examined the inter-variable correlation.

Compound	Nutritional driver for myelination in the final general linear model	Association with myelination (myelin water fraction) over time in the brain (in particular cerebellum, internal capsule, visual cortex, frontal lobe)
CCCCC/C=C\C/C=C\C/C=C\C/C=C\CCCC(=O)O [ARA, arachidonic acid]	identified drivers	
[Ca] [Calcium]	identified drivers	
C[N+](C)(C)CCO [Choline]	identified drivers	
Nc1nc2ncc(CNc3ccc(C(=O)N[C@@H](CCC(=O)O)C(=O)O)cc3)nc2c(=O)[nH]1 [Folic Acid, folic acid]	identified drivers	
[Mg] [Magnesium]	identified drivers	
[P] [Phosphorus]	identified drivers	
Iron	identified drivers	
Vitamin B12	identified drivers	
Zinc	identified drivers	
phosphatidyinositol	nutritional drivers for myelination	
phosphatidylcholine	nutritional drivers for myelination	
sphingomyelin	nutritional drivers for myelination	significant association with myelination
